What was measured:
[1] = Whole body composition of overweight dogs fed treatment diets for 12 weeks; format: in vivo; conditions: for Area: absolute data; for Area (relative data) / BMD (relative data) / Lean + BMC (relative data) / Total (relative data) / BMC (relative data) / Fat (relative data) / Lean (relative data): relative change, beginning to end of phase II
Description: In phase I of the study, 80 beagle and mongrel dogs were fed a weight gain diet (36% protein, 26% fat by dry weight). The dogs were allowed to eat as much as they wished for 16 weeks. Weekly weight gain and daily food intake were measured for each dog. In phase II, the 20 dogs that were the poorest weight […] eliminated from the study. The 60 remaining dogs were randomly assigned to one of the four treatment groups. The treatment diets were the following: Control. Similar to EUKANUBA REDUCED FAT dry dog food, consisting of approximately 19% protein and 10% fat on a dry weight basis, with an additional 3% poultry fat to achieve a total fat content of 13%. Free fatty acid mix. Identical to the control diet, but with 3% free fatty acids in place of the 3% poultry fat. The free fatty acid was technical grade linoleic acid. Ethyl esters of fatty acid mix. Identical to control diet, but with 3% ethyl ester of fatty acid in place of the 3% poultry fat. The ethyl ester used was ethyl oleate. Lotus leaf extract. Identical to the control, but with an additional 0.3% extract of lotus leaf. Lotus leaf extract has been used in China to promote human weight loss. It is purported to help induce a sense of satiety and reduce food consumption. The dogs were given the treatment diets for 12 weeks. During this time the dogs were allowed to eat as much as they wished. Daily food intake and weekly body weight were measured. Body composition measurements were also taken, including fat, lean body mass, bone mineral content (BMC), and bone mineral density (BMD). These measurements help to determine the cause of weight loss-for instance, whether it is due to an increase in satiety and therefore reduced food intake, or an increase in thermogenesis. The measurements also allow a determination of whether weight loss results from a reduction in lean body mass or a loss of fat, or a combination of both.

[2] = Average body condition scores of dogs on treatment diets; format: in vivo; conditions: for Average Body Condition Score: score 1 thin to 5 obese (Table 1); for Average Body Condition Score % Change: Day 0 to Day 84
Description: (§1) In phase I of the study, 80 beagle and mongrel dogs were fed a weight gain diet (36% protein, 26% fat by dry weight). The dogs were allowed to eat as much as they wished for 16 weeks. Weekly weight gain and daily food intake were measured for each dog. In phase II, the 20 dogs that were the poorest weight […] eliminated from the study. The 60 remaining dogs were randomly assigned to one of the four treatment groups. The treatment diets were the following: The dogs were given the treatment diets for 12 weeks. During this time the dogs were allowed to eat as much as they wished. Daily food intake and weekly body weight were measured. Body composition measurements were also taken, including fat, lean body mass, bone mineral content (BMC), and bone mineral density (BMD). These measurements help to determine the cause of weight loss-for instance, whether it is due to an increase in satiety and therefore reduced food intake, or an increase in thermogenesis. The measurements also allow a determination of whether weight loss results from a reduction in lean body mass or a loss of fat, or a combination of both. [table]

[3] = Daily food intake of dogs on treatment diets; format: in vivo; conditions: experimental period of phase II, compared among the four diets, FIGS. 1 and 2
Description: as §1, with “both.” for “both. [table]”

[4] = Weekly body weight / weight loss of dogs on treatment diets; format: in vivo; conditions: for weight loss: phase II, compared with control diet, FIGS. 3 and 4
Description: as §1, with “both.” for “both. [table]”

[5] = incorporated into a high fat diet fed to mice; U.S. Pat. No. 6,054,480; cited from earlier work
[6] = second Lean column (body share)

SMILES | BMC (bone mineral content) ([1]; Day 0, absolute data) | Fat ([1]; Day 0, absolute data) | Lean ([1]; Day 0, absolute data) | Lean + BMC ([1]; Day 0, absolute data) | Total ([1]; Day 0, absolute data) | BMC ([1]; Day 0, share of whole body) | Fat ([1]; Day 0, share of whole body) | Lean ([1]; Day 0, share of whole body) | Area ([1]; Day 0, start of phase II) | BMC (bone mineral content) ([1]; Day 84, absolute data) | Fat ([1]; Day 84, absolute data) | Lean ([1]; Day 84, absolute data) | Lean + BMC ([1]; Day 84, absolute data) | Total ([1]; Day 84, absolute data) | Area ([1]; Day 84, end of phase II) | BMC ([1]; Day 84, share of whole body) | Fat ([1]; Day 84, share of whole body) | Lean ([1]; Day 84, share of whole body) | Area (relative data) [1] | BMD (relative data) [1] | further results
CCCCC/C=C\C/C=C\CCCCCCCC(=O)O [T × 1, linoleic acid] | 263.95 g | 5772.09 g | 9840.21 g | 10104.15 g | 15876.27 g | 1.67% | 35.74% | 62.58% | 402.07 cm^2 | 257.27 g | 4109.94 g | 9607.27 g | 9864.54 g | 13974.49 g | 387.39 cm^2 | 1.84% | 29.22% | 68.94% | −3.98% | 1.15% | Lean + BMC (relative data) [1]: −2.38%; Total (relative data) [1]: −11.75%; BMC (relative data) ([1]; first BMC column): −3.06%; Fat (relative data) ([1]; first Fat column (mass)): −28.22%; Lean (relative data) ([1]; first Lean column (mass)): −2.34%; BMC (relative data) ([1]; second BMC column (body share)): 10.16%; Fat (relative data) ([1]; second Fat column (body share)): −18.59%; Lean (relative data) [1, 6]: 10.84%; Average Body Condition Score ([2]; Day 0): 4.1; Average Body Condition Score % Change [2]: −19.5%; Average Body Condition Score ([2]; Day 84): 3.3; food intake [3]: ate intermediate amounts, slightly more than the control diet; weight loss [4]: generally greatest
CCCCCCCC/C=C\CCCCCCCC(=O)OCC [T × 2, ethyl oleate] | 253.62 g | 5956.12 g | 9667.31 g | 9920 g | 15877.02 g | 1.61% | 36.77% | 61.63% | 395.54 cm^2 | 229.74 g | 4723.12 g | 9837.15 g | 10066.89 g | 14790.01 g | 362.26 cm^2 | 1.57% | 31.44% | 66.99% | −7.99% | −0.58% | Lean + BMC (relative data) [1]: −4.69%; Total (relative data) [1]: −6.56%; BMC (relative data) ([1]; first BMC column): −8.58%; Fat (relative data) ([1]; first Fat column (mass)): −18.59%; Lean (relative data) ([1]; first Lean column (mass)): 2.06%; BMC (relative data) ([1]; second BMC column (body share)): −2.39%; Fat (relative data) ([1]; second Fat column (body share)): −13.43%; Lean (relative data) [1, 6]: 9.61%; Average Body Condition Score ([2]; Day 0): 4.0; Average Body Condition Score % Change [2]: −7.5%; Average Body Condition Score ([2]; Day 84): 3.7; food intake [3]: ate intermediate amounts, slightly more than the control diet; average weight ([4]; 10th-12th weeks of phase II, compared with control group): average weight increased above that of the control group; weight loss [4]: lost more weight than the control group for the first 9 weeks of phase II
CCCCCCCCCCCCCC(=O)O [myristic acid] | – | – | – | – | – | – | – | – | – | – | – | – | – | – | – | – | – | – | – | – | effect on body weight [5]: caused weight loss or reduction of weight gain in the mice

From patent publication US20040044079A1, “Methods and compositions for weight control” (The IAMS Company, priority 2002, published 2004)
